Results on one compound are retold here after US20210379046A1, “Methods of Treating Diseases Using Kinase Modulators” (Memorial Sloan Kettering Cancer Center, priority 2018, published 2021).

One test has as its system LC-2/ad cells. Briefly: Flow cytometry of cell surface HLA on LC-2/ad cells. The note with it: 72 hrs. The class given is cell-based, human. How it is done: (§1) If adherent cells, they were seeded one day before treatment.
On the technique in general: In flow cytometry, cells or beads pass a laser one at a time.

In another test the test system is TPC1 tumors. Description: TPC1 subcutaneous tumors in NRG mice, tumor HLA and PD-L1 by flow cytometry. The note with it: 7 days. The class given is in vivo. How it is done:
Female NSG (NOD.Cg-Prkdc^scidIl2rg^tm1Wj1/SzJ) and NRG (NOD.Cg-Rag1^tm1MomIl2rg^tm1Wj1/SzJ) mice were purchased from the Jackson Laboratory or MSKCC breeding facility at 5-10 weeks old. For RET and ALK experiments, 2.5-6×10^6 tumor cells were subcutaneously injected into the flank of mice and when tumors were palpable, mice were treated daily with drug or vehicles through oral gavage. At day 7, tumors were harvested and flow cytometry was run to determine effect of inhibitors on HLA and PD-L1 on the tumor cells.
To determine if the inhibitors produced similar therapeutic improvements in vivo, mice bearing the TPC1 tumor were treated with RET inhibitors. The highly immunodeficient NRG (NOD-Rag1null IL2rgnull) mice were subcutaneously injected with 2.5×10^6 luciferase tagged TPC1 cells in their right flank. […] Afterwards, cells were immediately harvested and stained with antibodies against HLA-A*02:01 and HLA-ABC.
All animal experiments were conducted in accordance with and the approval of the MSKCC IACUC (Institutional Animal Care and Use Committee) protocols. Female NSG (NOD. Cg-Prkdc^scidIl2rg^tm1Wj1/SzJ) and NRG (NOD.Cg-Rag1^tm1MomIl2rg^tm1Wj1/SzJ) mice were purchased from the Jackson Laboratory at 5-10 weeks old. For experiments in vivo with RET and ALK, 2.5-6×10^6 tumor cells in PBS were subcutaneously injected into the flank of mice. […]

A further test relates to TPC1 cells. Briefly: Flow cytometry of cell surface HLA and checkpoint ligands on TPC1 cells. It counts as cell-based, human. The method, then: as §1

Several values for one entry are separate records, joined by “and”; a condition that tells them apart may be missing. Equal entries are not always repeated. Entries after “also recorded” stand apart in the source; their conditions may differ.

On to `CCN1CCN(Cc2ccc(NC(=O)Nc3ccc(Oc4cc(NC)ncn4)cc3)cc2C(F)(F)F)CC1` [AST487], for which, in the test with LC-2/ad cells, the “surface HLA” value is listed as “only small increases were seen; also recorded: increases in surface HLA”. Further, the “tumor cell surface HLA-A*02 and HLA-A,B,C in vivo” value with TPC1 tumors (10 or 35 mg/kg once daily oral gavage) is “Dose related increase in HLA levels; also recorded: Dose-related increases in all HLA class I levels; also recorded: increased in a dose related manner”. Besides, in the test with TPC1 tumors (oral gavage), the “tumor PD-L1 levels in vivo” value is given as “no increase in PD-L1 was seen; also recorded: PD-L1 levels did not change in vivo”. The “HLA levels increase without STAT3 knockdown” value in the test on TPC1 cells (TPC1, 10 nM AST487, 72 hrs) worked out at 3 fold. The “increase in surface HLA-A,B,C levels” value in the test with TPC1 cells (TPC1, 72 hours) is 3- to 4 fold and 3 to 4 fold. Also, in the test with TPC1 cells (TPC1, 72 hrs), the “surface HLA-A*02:01” value is “dose dependent increase in surface HLA-A*02”, the “surface HLA-A,B,C” value is recorded as “Surface HLA-A,B,C increase” and the “surface HLA-E levels” value is listed as “did not change”. In the test with TPC1 cells (TPC1, 72 hrs, normalized to DMSO), the “HLA upregulation, AST487 compared with trametinib at the same concentrations” value was “more potent and increased HLA levels at lower doses of drug; also recorded: higher levels of HLA upregulation”. In addition, the “HLA-A02 (BB7-FITC) surface level” value in the test with TPC1 cells (TPC1, AST 487 10 nM, 72 hours) is on record as “led to upregulation of HLA”. In the test with TPC1 cells (TPC1, siSTAT3 24 hrs before 10 nM AST487, 72 hrs, HLA-A*02), the “HLA levels increase after siSTAT3 pretreatment” value is reported as about 6 folds. The “increase in surface HLA, control group (pBabe)” value in the test on TPC1 cells (TPC1 pBabe, 72 hours) was about 3 fold. In addition, in the test with TPC1 cells (TPC1 with introduced BRAF V600E mutation), the “increase in surface HLA, BRAF V600E cells” value is given as “about 2 fold”.
